Assay results as given in patent US9244073B2, “Assays for detecting enzymatic activity” (Wellstat Diagnostics, LLC, priority 2011, dated 2016).

Test system: FXa
Assay: Detecting FXa activity with biotin- and TAG Plus-conjugated substrate (ECL, loss of signal on cleavage)
Assay type: biochemical
From the text: FXa activity can be measured through the use of peptides that include a FXa recognition sequence, a biotin at one terminus of the peptide and a BV-TAG Plus at the other terminus. In this embodiment, FXa recognizes and specifically cleaves the peptide between the arginine amino acid and the next amino acid toward the carboxy terminus, e.g., between arginine and glycine in peptide probe sequences I and II below. The cleavage by FXa results in the separation of biotin from the BV-TAG Plus. When the biotin is captured with streptavidin coated microparticles (Dynabeads M280-SA, Invitrogen, Cat: 112-06D), this loss of BV-TAG Plus can be measured quantitatively by an ECL instrument such as the M-SERIES® M1MR Analyzer (BioVeris Corporation, Gaithersburg, Md.).
A FXa activity calibrator curve was set up in a 96-well U bottom microtiter plate containing a serial dilution of FXa in an assay buffer [20 mM Tris-HCl (pH 7.2), 100 mM NaCl, 0.5% BSA and 6.0 mM CaCl2], with either peptide probe sequence I or II and M280-SA beads (Dynabeads M280-SA, Invitrogen, Cat: 112-06D). To each well was added 50 μL of 2-fold serial dilutions of FXa from 5000, 2500, 1250, 625, 313, 156 and 78.1 ng/mL and 50 μL of peptide probe (sequence I or II) at 10.0 ng/mL. The plate was incubated for 50 minutes on a MicroMix 5 shaker (Siemens) at room temperature and then 20 μL of 500 μg/mL M280-SA beads were added for an additional 10-minute incubation. The beads were washed once in 150 μL of a PBS-based buffer solution containing 1.8 mM KH2PO4, 10 mM Na2HPO4, 120 mM NaCl, 2.7 mM KCl, 0.033% Tween20 and 0.10% KATHON® CG/ICP II (Cat: 48178-U. Sigma, St. Louis, Mo.) and recovered by attaching a plate magnet to the 96-well plate (LIFESEP™ 96F, Dexter Magnetic Technologies Inc., Elk Grove Village, Ill. 60007). Beads were resuspended in 150 μL of the same PBS-based buffer and read in a M1MR Analyzer (Bioveris).

FXa, sequence (P00742 41-179 limits assumed): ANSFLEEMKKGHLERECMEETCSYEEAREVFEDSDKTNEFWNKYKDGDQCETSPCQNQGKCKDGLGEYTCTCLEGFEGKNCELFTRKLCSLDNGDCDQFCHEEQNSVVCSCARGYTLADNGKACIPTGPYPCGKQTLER
FXa, sequence (P00742 235-488 limits assumed): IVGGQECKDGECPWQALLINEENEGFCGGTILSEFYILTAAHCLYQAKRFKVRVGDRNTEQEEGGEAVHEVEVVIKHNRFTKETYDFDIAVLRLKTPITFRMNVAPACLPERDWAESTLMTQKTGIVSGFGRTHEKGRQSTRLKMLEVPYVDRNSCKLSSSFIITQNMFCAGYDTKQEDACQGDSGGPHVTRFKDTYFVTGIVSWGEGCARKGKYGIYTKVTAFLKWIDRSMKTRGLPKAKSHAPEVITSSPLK

Substance | % Signal Decrease (FXa 78.1 ng/mL) | Mean Signal (FXa 78.1 ng/mL) | % Signal Decrease (FXa 156 ng/mL) | Mean Signal (FXa 156 ng/mL) | % Signal Decrease (FXa 313 ng/mL) | Mean Signal (FXa 313 ng/mL) | % Signal Decrease (FXa 625 ng/mL) | Mean Signal (FXa 625 ng/mL) | % Signal Decrease (FXa 1250 ng/mL) | Mean Signal (FXa 1250 ng/mL) | % Signal Decrease (FXa 2500 ng/mL) | Mean Signal (FXa 2500 ng/mL) | % Signal Decrease (FXa 5000 ng/mL) | Mean Signal (FXa 5000 ng/mL)
Biotin-(mPeg2)IEGRGS (KBv TAG Plus) amide [Peptide Probe Sequence II] | 0% | 339795 | −4% | 325928 | −11% | 302632 | −10% | 305778 | −24% | 256745 | −39% | 208649 | −66% | 116839
Biotin-IEGRGS (KBv TAG Plus) amide [Peptide Probe Sequence I] | −3% | 413958 | −3% | 413232 | −9% | 388137 | −15% | 363185 | −31% | 296182 | −53% | 202007 | −76% | 103604
